The target of this assay is Bee venom phospholipase A2 (PLA2) (Apis mellifera, UniProt P00630). The class given is biochemical.

Each structure is given as a SMILES string.

Chain of Bee venom phospholipase A2 (PLA2) (P00630 34-167 limits assumed): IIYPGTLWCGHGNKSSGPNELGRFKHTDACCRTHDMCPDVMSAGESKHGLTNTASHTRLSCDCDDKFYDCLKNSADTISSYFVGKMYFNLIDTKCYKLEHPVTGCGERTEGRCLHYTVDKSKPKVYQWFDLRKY

With `CC(=O)O[C@H]1C[C@@H]2[C@@]3(C)CCCC(C)(C)[C@@H]3CC[C@@]2(C)[C@@H]2CC=C(C=O)[C@H](C=O)[C@@]12C` [schalaradiol, 12-epi-scalaradial], the “inhibition of PLA2 activity (rise in emission at 640 nm of supported liposomes)” value is “partial inhibition”.

The values above are taken from patent US20070248950A1, “Supported polydiacetylene 3-D arrays for flourescent or phosphorescent detection” (Analytical Biological Services, Inc., priority 2006, published 2007).
